Results as given in patent US9066938B2, “GPBP-1 inhibition and its therapeutic use” (Fibrostatin S.L., priority 2012, dated 2015).
Where a name gives a salt, the structure may show the parent alone.

Tests used:
[1] = tested on: CSC/SP compartment of A549 cell cultures; test: Side population (CSC/SP) staining with Hoechst 33342, flow cytometry; format: cell-based, human; conditions: for cell content of the CSC/SP compartment: single compound
Description: FIG. 9. […] A, cultures of A549 cells were incubated with Hoescht 33342 in the absence (−) or presence (+) of verapamil (50 μM) and fumitremorgin C (10 μM). Circled area (R2) denotes the region containing the flow cytometry events representing CSC/SP cells. B, shown are the relative abundance of CSC/SP cells (%) in cell cultures untreated (control) or treated with the indicated compounds.
A549 cells were suspended at 10^6 cells/mL in culture medium containing 10 mM Hepes (previously warmed at 37° C.). Hoechst 33342 was added at 5 μg/mL and cells incubated in a 37° C. bath with shaking for 90 min in the dark. Before incubation (and after staining) an aliquot of 1 mL was taken and verapamil (50 μM) and fumitremorgin C (10 μM) added. Cells were centrifuged at 300×g for 5 min at 4° C. and suspended in cold medium with 10 mM Hepes. Cells were kept at 4° C. until analysis. Analysis of Hoechst 33342 efflux was assessed using a Flow Cytometer with incident 350 nm ultraviolet light. The resulting fluorescence was measured at two wavelengths using 424/44 BP and 675 LP filters that allow detection of Hoechst blue and red, respectively. […] Doxorubicin content in either population was estimated with incident 488 nm blue light and 585/40 filter. Verapamil and fumitremorgin C werer used to identify SP region.

[2] = biological target: T1, recombinant human GPBP-1 produced in insect cells (Homo sapiens, UniProt Q9Y5P4); test: Affinity constants for GPBP-1 by the Benesi-Hildebrand method; format: binding
T1 construct: FLAG (N); made in house; host or cells: SF9 insect cells (baculovirus, pFastBac1)
T1 sequence (Q9Y5P4 1-624): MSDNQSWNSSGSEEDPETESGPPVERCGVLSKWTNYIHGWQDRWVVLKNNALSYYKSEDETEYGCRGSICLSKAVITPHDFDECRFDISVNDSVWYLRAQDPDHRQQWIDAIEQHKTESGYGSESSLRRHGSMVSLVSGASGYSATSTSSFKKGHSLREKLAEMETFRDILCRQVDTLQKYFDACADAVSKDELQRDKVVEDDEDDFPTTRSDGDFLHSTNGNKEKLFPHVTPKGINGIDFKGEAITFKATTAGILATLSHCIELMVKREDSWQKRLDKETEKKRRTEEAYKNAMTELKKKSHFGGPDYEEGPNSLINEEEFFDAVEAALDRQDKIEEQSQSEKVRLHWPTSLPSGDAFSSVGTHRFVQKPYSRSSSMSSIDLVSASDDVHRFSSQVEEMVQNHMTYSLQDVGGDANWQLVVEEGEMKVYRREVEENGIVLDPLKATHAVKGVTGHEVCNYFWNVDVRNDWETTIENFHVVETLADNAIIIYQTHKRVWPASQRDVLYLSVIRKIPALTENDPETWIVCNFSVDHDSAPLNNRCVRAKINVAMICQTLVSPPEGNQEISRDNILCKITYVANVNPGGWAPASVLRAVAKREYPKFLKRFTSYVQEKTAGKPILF
Description: FIG. 1. […] A, to assess the inhibitory activity of T12 and doxorubicin on GPBP-1 kinase activity and their synergism, approximately 200 ng of yeast FLAG-GPBP-1 from two different preparations with low and high specific activities were incubated with [γ-^32P]ATP in the absence (−) or presence (+) of the indicated compounds and concentrations. Mixtures were subjected to Western blot and autoradiographed (^32P). The levels of GPBP were further analyzed using anti-FLAG (WB). B, in the panel is shown affinity constants of the indicated compounds for recombinant human GPBP-1 produced in insect cells calculated by the Benesi-Hildebrand method. Recombinant yeast GPBP-1 was expressed in Pichia pastoris and affinity-purified as previously described (Raya et al. 1999, raya et al. 2000). To express and purify recombinant FLAG-GPBP-1 from SF9 insect cells, the cDNA of FLAG-GPBP-1 was cloned in the baculovirus expression vector pFastBac1. The plasmid was transformed into DH10Bac competent cells and the recombinant baculovirus was produced following manufacturer's recommendations (Bac-to-Bac™ Baculovirus Expression System, Invitrogen, Life Technologies). Baculovirus was used to infect SF9 cells and GPBP-1 in the supernatant of culture media was purified by affinity chromatography using anti-FLAG agarose (Sigma-Aldrich) following manufacturer's recommendations. GPBP-1 phosphorylation assays were performed as previously described (Raya et al. 1999).

human recombinant GPBP-1 = biological target: T2, human recombinant GPBP-1 (Homo sapiens, UniProt Q9Y5P4); test: GPBP-1 in vitro autophosphorylation (kinase) assay with [γ-32P]ATP; format: biochemical
T2 construct: made in house; host or cells: Pichia pastoris
T2 sequence (Q9Y5P4 1-624): T1 sequence (Q9Y5P4 1-624)
Source text: To explore the possibility that doxorubicin, an anti-tumor agent targeting topoisomerase II (Pommier et al. 2010), operates through GPBP-1, human recombinant GPBP-1 (Raya et al. 1999) was subjected to in vitro autophosphorylation in the presence or absence of doxorubicin and T12 (FIG. 1A).

A549 xenografts = test: Mouse xenograft study with A549 tumors; format: in vivo, nude mice; conditions: for tumor growth, single compound: doxorubicin 2.5 mg/kg per week i.p. or T12 20 mg/kg per day in drinking water, three weeks
Description: FIG. 11. T12 and doxorubicin are synergistic arresting growth of A549-based tumors. Nude mice bearing A549 xenografts were treated with the indicated compounds as indicated in Methods and Experimental Design. Indicated are the tumor size at the indicated times. […] FIG. 12. T12 and doxorubicin are synergistic necrotizing A549-based tumors. Tumor samples from mice used in FIG. 11 were fixed in formalin, paraffin-embedded, subjected to Masson's trichrome staining and observed by optical microscopy. Necrotic areas are indicated with asterisks. Shown are representative images. FIG. 13. […] Ten-week old nude mice (NMRi-Foxn1^nu/Foxn1^nu) (Janvier) were used for xenograft studies. Three-million A549 cells were suspended in 100 μL of culture medium, mixed with 200 μL Matrigel (BD) and subcutaneously injected on the flank of individual mouse (n=40). Tumor size was periodically measured with a digital caliper and volumes were calculated with the formula […]. […] After three weeks mice were sacrificed, tumor xenografts excised and either fixed with formalin and paraffin-embedded or frozen and RNA extracted. Sections of paraffin-embedded tumor samples were subjected to hematoxylin and eosin and Masson's trichrome standard stainings. Frozen tumor samples were ground with a mortar in liquid nitrogen and total RNA extracted as above indicated.

[3] = 2.5 mg/kg/week doxorubicin and 20 mg/kg/day T12, three weeks

SMILES	CSC/SP compartment relative to untreated cultures, co-treatment ([1]; doxorubicin and T12 co-treatment)	cell content of the CSC/SP compartment [1]	affinity / manner of binding to GPBP-1 [2]	inhibitory activity on GPBP-1 autophosphorylation in combination with doxorubicin (human recombinant GPBP-1; T12 plus doxorubicin)	matrix metalloproteinase 10 (MMP-10) expression in tumors, combined treatment (A549 xenografts; 2.5 mg/kg/week doxorubicin and 20 mg/kg/day T12, qPCR)	necrotic areas within the tumors, combined treatment (A549 xenografts; [3])	tumor growth, combined administration (A549 xenografts; [3])	tumor growth, single compound (A549 xenografts)	binding to GPBP-1, fold stronger than T12 (affinity constants) ([2]; relative to T12)	inhibition of GPBP-1 autophosphorylation (human recombinant GPBP-1; compound alone)
COc1ccc(-c2ccc(-c3cccc(C)c3)c(C)c2)c(CCC(=O)O)c1 [T12, 3-[4″-methoxy-3,2′-dimethyl-(1,1′;4′,1″)terphenyl-2″-yl] propionic acid]	one fourth	reduction	light-moderated affinity	synergistic	lower levels	more extensive	tumor arrest	did not impaired tumor growth	–	–
COc1cccc2c1C(=O)c1c(O)c3c(c(O)c1C2=O)C[C@@](O)(C(=O)CO)C[C@@H]3O[C@H]1C[C@H](N)[C@H](O)[C@H](C)O1 [doxorubicin, doxorubicin hydrochloride, reference compound]	–	reduction	irreversible	–	–	–	–	did not impaired tumor growth	~10^5 fold	efficiently inhibited
